The source of these data is EP4810065A1, “COMBINED USE OF ANTIBODY-DRUG CONJUGATE AND POLY(ADENOSINE D[…]) POLYMERASE INHIBITOR” (Jiangsu Hansoh Pharmaceutical Group Co., Ltd., priority 2023, dated 2025).

In data set [1] the test system is MX-1 human breast cancer cell mouse xenografts. The experiment in a line: MX-1 human breast cancer subcutaneous xenograft model. It counts as in vivo, Balb/c nude mice. Here is the method: Drug A was prepared by dilution with normal saline, and drug B was prepared using 0.5% HPMC; Human breast cancer MX-1 cells were cultured as a monolayer in vitro under culture conditions of DMEM/F12 medium supplemented with 10% fetal bovine serum, 100 U/mL penicillin, and 100 µg/mL streptomycin, and cultured in a cell incubator at 37°C and 5% CO2. Routine digestion treatment and passaging were carried out twice a week using trypsin-EDTA. When the cell confluence was 80%-90% and the number of cells reached the requirement, the cells were collected, counted, and inoculated.
Balb/c nude mice, female, body weight 17-25 g, were purchased from Shanghai Bi Kai Ke Yi Biotechnology Co., Ltd.
(§1) MX-1 cells were resuspended in PBS, the density after resuspension was 100×10^6/mL, the resuspended cells were mixed with an equal volume of Matrigel, inoculated subcutaneously into the right dorsal side of each mouse, 0.1 mL was inoculated into each mouse (5×10^6 cells/animal), and when the average tumor volume grew to 100-150 mm^3, grouping was carried out (D1), and drug administration was started on the day of grouping. The mice were administered by gavage (p.o.) once daily; the mice were administered by tail vein injection (i.v.) as a single administration; the administration volume was 10 mL/kg; the vehicle group was given the same volume of "vehicle"; the specific administration doses and administration regimens are shown in Table 3-1. Tumor volume was measured, mouse body weight was weighed, and data were recorded.
(§2) The experimental indicator was to examine the effect of the drug on tumor growth, and the specific indicator was the tumor growth inhibition rate TGI (%).
(§3) The tumor diameter was measured twice a week with a vernier caliper, and the calculation formula for tumor volume (V) was:V = 1/2×a×b^2 where a, b respectively indicate length and width.
(§4) Calculation of TGI (%): When there was no tumor regression, TGI (%) = [1 - (average tumor volume of a certain treatment group at the end of administration - average tumor volume of that treatment group at grouping)/(average tumor volume of the vehicle control group at the end of treatment - average tumor volume of the vehicle control group at grouping)] × 100%. When there was tumor regression, TGI (%) = [1 - (average tumor volume of a certain treatment group at the end of administration - average tumor volume of that treatment group at grouping)/average tumor volume of that treatment group at grouping] × 100%.
(§5) At the end of the experiment, upon reaching the experimental endpoint, or when the average tumor volume reached 2000 mm^3, the animals were euthanized under CO2 anesthesia, and then dissected for tumor collection and photographing.
The experimental data were analyzed and plotted using GraphPad Prism 9.4. Based on the tumor volume data of each group at different time points, Dunnett's multiple comparisons test in Two-way ANOVA was used for statistical analysis to evaluate differences among groups. […] Table 3-1. Dosing regimen of drug A in combination with drug B in the MX-1 model

Data set [2] has as its system RL95-2 endometrial cancer cell mouse xenografts. The experiment in a line: RL95-2 human endometrial cancer subcutaneous xenograft model. It counts as in vivo, nude mice. How it is done:
Drug A was prepared by dilution with normal saline, and drug B was prepared using 0.5% HPMC; Human endometrial cancer cells RL95-2 were cultured in vitro in a cell incubator at 37°C and 5% CO2. Routine digestion treatment and passaging were carried out twice a week using trypsin-EDTA. When the cell confluence was 80%-90% and the number of cells reached the requirement, the cells were collected, counted, and inoculated.
as §1, with “RL95-2” for “MX-1”, “100 × 10^6/mL,” for “100×10^6/mL,”, “(5 × 10^6” for “(5×10^6”, “and” for “and drug”, “5-1.” for “3-1.”
as §2, §3, §4, §5
The experimental data were analyzed and plotted using GraphPad Prism 9.4. Based on the tumor volume data of each group at different time points, Dunnett's multiple comparisons test in Two-way ANOVA was used for statistical analysis to evaluate differences among groups. […] Table 5-1. Dosing regimen of drug A in combination with drug B in the RL95-2 model

[3] abbreviates: D28, Drug B 1 mg/kg p.o. QD*28 times.

As to `CCc1cc2ncc(CN3CC=C(c4ccc(C(=O)NC)nc4)CC3)cc2[nH]c1=O` [Drug B, 1'-((7-ethyl-6-oxo-5,6-dihydro-1,5-naphthyridin-3-yl)methyl)-N-methyl-1',2',3',6'-tetrahydro-[3,4'-bipyridine]-6-carboxamide], the “Average tumor volume (mm^3) ± SEM” value is 148±7 mm^3 in data set [1] (D0 (at grouping), Drug B 0.3 mg/kg) and 199±20 mm^3 in data set [1] (D28, Drug B 0.3 mg/kg). Moreover, the “TGI (%)” value in data set [1] (D28, Drug B 0.3 mg/kg) stood at 97.25%; in data set [2] (setting [3]) it was 5.08%. Also, in data set [1] (D28, Drug B 0.3 mg/kg, animals with partial regression/animals in group), the Partial regression is recorded as 2/8. In addition, in data set [1] (MX-1 tumor-bearing mice), the “tolerability (body weight, death, abnormal symptoms)” value is “could well tolerate”. In addition, the “Average tumor volume (mm^3) + SEM” value is 134+7 mm^3 in data set [2] (D0 (at grouping), Drug B 1 mg/kg p.o. QD*28 times) and 1097+109 mm^3 in data set [2] (setting [3]). In addition, the “T/C (%)” value in data set [2] (setting [3]) was 95.50%. In data set [2] (RL95-2 tumor-bearing mice), the tolerability result is given as “could well tolerate”. In data set [2] (RL95-2 xenograft mouse model), the tumor growth inhibition result is recorded as “had no obvious inhibitory effect on tumor growth”.
